The results in this text go back to a melting point compilation (Tetko et al.; mined from patent text by program, amines drawn as free bases though some values may be those of a salt).

The melting point is the temperature of the solid-liquid transition.

Molecules are shown by their SMILES.

Take `CC(C)c1[nH]c2ccccc2c1C=C1SC(=S)N(CC(=O)O)C1=O`: the melting point was 259 to 260 °C.
Next, `CNC(=O)C(CCCl)(c1ccccc1)c1ccccc1`: 150 to 152 °C; `COc1ccc(/C=C(\C)c2ccc3c(c2)C(C)(C)CCC3(C)C)cc1`: 108 to 110 °C.
Next, `COc1cccc(Oc2ccc(C(=O)O)cc2C(=O)O)c1`: 232 to 234 °C; `CS(=O)(=O)OCC(C(=O)N1CCC(=C2c3ccc(Cl)cc3CCc3cccnc32)CC1)c1ccccc1` (configuration not stated): 111 to 112 °C; `CCN(CC)C(=O)COC(=O)c1ccc(O)cc1`: 148 to 149 °C.
Under `COC(=O)CCC/C(C)=C/c1cccc2c1NCCNC2=O` stands 175 to 176 °C.
As for `CCN(CC)CCOC(=O)CCc1cc(S(C)(=O)=O)cc(-c2nc(=O)c3ccc(Cl)cc3s2)n1`, the melting point was in the range of 150 to 152 °C.
Next, `CCOc1ccccc1-c1cc(NC(=O)C2CCN(C(C)C)CC2)ncn1`: 173 to 175 °C; `COc1csc2ccc(C(=O)O)c(Cl)c12`: 185 to 192 °C; `Nc1nc(-c2ccco2)c(N2CCOCC2)s1`: 285 to 288 °C.
Under `Cc1noc2cc(OC3SCC(O)C(O)C3O)ccc12` (configuration not stated) stands 148 to 161 °C; under `O=C(NC1CCN(CCCOc2ccc3c4c(c(=O)oc3c2)CCC4)CC1)c1ccc([N+](=O)[O-])cc1`, 212 to 213 °C.
The molecule `O=[N+]([O-])c1cn(-c2cccnc2)nc1F` displayed a melting point of 139 to 141 °C.
Next, `O=C(O)COc1ccccc1C(=O)NCc1ccc(Br)cc1F`: 144 to 145 °C.
Under `O=c1c(CCc2ccncc2)cc2cccnc2n1-c1cccc([N+](=O)[O-])c1` stands 213 to 214 °C.
Next, `COc1ccc(C2=NN(c3ccc(CCBr)cc3)C(=O)[C@H]3CC=CC[C@@H]23)cc1OC` (relative stereo): 126 to 127 °C; `Cc1cc2c(NC(=S)N3Cc4ccsc4CC3CO)cccc2cn1` (racemic): 190 °C; `CN1C(=O)[C@H](NC(=O)CCc2cccc(Cl)c2)N=C(c2ccccc2)c2ccccc21`: 157 to 159 °C.
Molecule `CC(C)Cn1c(=O)n(C)c(=O)c2c(SC(C)C)c(C(=O)c3nc4ccccc4n3C)sc21` came in with a melting point of 166 to 169 °C.
Next, `CC(C)(C)c1cc(C(O)C#Cc2ccc(C(=O)O)c(O)c2)cc(C(C)(C)C)c1OCOCC[Si](C)(C)C` (configuration not stated): 146 to 147 °C; `Cc1cc(F)ccc1-c1nc(NC2CCOCC2)nc2c1ccc(=O)n2-c1ccccc1F`: 211 to 212 °C; `CCCCc1cnc(-c2ccc(C#N)cc2)nc1`: 60.9 to 61.8 °C.
Next, `CCc1cc(C(=O)O)ccc1O`: 134 to 136 °C; `CN1CCN(c2cc(Cl)cc3c2c(=O)n(Cc2cccc4ccccc24)c(=O)n3Cc2ccccc2)CC1`: 75 to 89 °C.
Next, `CCOC(=O)C(=O)CC(=O)c1cn(Cc2ccccc2F)c2ccccc2c1=O`: 152 to 153 °C; `CCOC(=O)C(Cc1ccccc1)(Cc1ccc([N+](=O)[O-])cc1)C(=O)OCC`: 70 to 71 °C.
In turn, `N#CCCNC(=O)c1cccc(-c2ccc3c(c2)N(c2cccc(Cl)c2Cl)CC3)c1` returned a melting point of 155 to 156 °C.
Next, `CCCNC(=O)c1ccc(-c2nc(=O)c3ccccc3s2)nc1`: 268 to 269 °C.
Next, `COc1ccc2c(-c3ccccc3)csc2c1`: 58 to 59 °C.
Next, `CC(C)Oc1cccc(-c2nc3ncccc3o2)c1`: 68.5 to 70.5 °C; `Cn1nc(-c2ccc(C(F)(F)F)cc2)cc1C(=O)O`: 230 to 232 °C.
`CC12CCC(=O)NC1=CCC1C2CCC2(C)C(=NN)CCC12` (configuration not stated): the melting point is 379 to 382 °C.
For the molecule `Cc1cccnc1NC(=O)OC(C)(C)C`, the melting point lay in the range of 132 to 133 °C.
Under `CCCn1cnc2c1c(=O)n(CCCC(C)(O)C#CCN1CCN(C)CC1)c(=O)n2C` (configuration not stated) stands 168 °C; under `CCNC(=O)n1nc(Oc2ccc(C#N)cc2C(F)(F)F)cc1C`, 103 to 105 °C.
Next, `COc1cncc(OC)c1CCCOc1cccnc1Oc1cccc(Br)c1`: 106 to 154 °C.
Under `CSc1ccc(N)c(C#N)c1` stands 50 to 54 °C; under `O=[N+]([O-])c1ccc(F)c(-c2cncnc2)c1F`, 78 to 80 °C.
In turn, `Cc1ccc(C(=O)Cc2nnnn2C)c(N)c1` gave a melting point of 155 to 156 °C.
Under `Cc1cccc(CC(Cc2cccc(C)c2)C(=O)O)c1` stands 86 to 88 °C; under `CC(C)(C)OC(=O)[C@H](Cc1ccc(O)cc1)NC(=O)c1c(F)cccc1F`, 145 to 148 °C.
Under `CCCC(=O)C1c2cccc(OC(=O)C(C)(C)C)c2C(=O)c2c(OC(=O)C(C)(C)C)cccc21` stands 120 °C.
For `CCc1[nH]c(C)c(C(C)=O)c1C`, the melting point lay within 153 to 160 °C.
For the molecule `CCCc1nc2c(N)nc3ccccc3c2n1CCOCCCCl`, the melting point lay within 131 to 132 °C.
Molecule `CCOC(=O)c1snnc1C` showed a melting point of 59 to 61 °C.
Molecule `Brc1cn2ccsc2n1` gave a melting point of 96 to 98 °C.
For the molecule `NS(=O)(=O)c1ccc(-c2cn(-c3nc(-c4ccc(C(F)(F)F)cc4)cc(C(F)(F)F)n3)cn2)s1`, the melting point was determined as 281 °C.
For the molecule `O=[N+]([O-])c1cc([C@@H]2CO2)ccc1OCc1ccccc1`, the melting point amounted to 66 °C.
Under `O=C1CC2OC(CBr)CN12` (configuration not stated) stands 49 to 50 °C; under `COC(c1ccc(C)cc1)c1ccccc1Br` (configuration not stated), 98 to 99 °C.
Under `CN1C(=O)[C@H](NC(=O)/C=C/c2ccc(F)cc2F)N=C(c2ccccc2)c2ccccc21` stands 121 to 123 °C; under `c1ccc(Cc2nnc(Nc3cccc(-n4ccnc4)c3)c3ccccc23)cc1`, 214 to 217 °C; under `COC(=O)CCc1c(CCO)ccc2c1CCC(NS(=O)(=O)c1ccc(Cl)cc1)C2` (configuration not stated), 132 °C.
`Cc1c(C2CCC(c3ccccc3)(N(C)C)CC2)[nH]c2ccc(F)cc12` (configuration not stated) returned a melting point of 199 to 205 °C.
Under `CCCCCCCN(CCc1ccc(OC(C)(C)C(=O)O)cc1)C(=O)Nc1ccc(F)cc1` stands 162 to 164 °C.
Next, `Cc1ccc2c(c1)Oc1sc(C)cc1C(N1CCN(C)CC1)=N2`: 149 to 150 °C.
